Experiments:
[1] = system: Huh7 cells; assay: MTT cell viability assay on Huh7; type: cell-based, human; settings: for concentration at which compound began to elicit toxicity: Huh7, MTT, 24 h, 1-300 μM tested; for toxicity compared with ASS234: Huh7, MTT (Figure 5A)
Procedure: (§1) The human hepatoma cell line (Huh7) was purchased from the American Type Culture Collection (ATCC, Manassas, VA, USA). The generation and characterization of the immortalized mouse hepatocyte cell line WTIIB has been previously described.[24] Cell viability was measured by the quantitative colorimetric MTT (3-[4,5-dimethylthiazol-2-yl]-2,5 diphenyl tetrazolium bromide) assay as previously described, and triarylmethane dye (violet) assay following the protocol adapted from Feoktistova et al.[25] After the incubation period with the compounds, MTT reagent was added to each well at a final concentration of 0.5 mg/mL. The plate was placed in a humidified incubator at 37 °C with 5% CO2 and 95% air for 2 h. Then, the precipitated formazan was dissolved with dimethyl sulfoxide (DMSO) and the colorimetric determination of MTT was measured in the spectrophotometer at 540 nm wavelength. Nontreated cells were considered controls and were taken as 100% viability.

[2] = system: hBuChE; settings: cited from earlier work
[3] = system: WTIIB cells; assay: MTT cell viability assay on WTIIB; type: cell-based, mouse; settings: for concentration at which compound began to elicit toxicity: MTT, 24 h, 1-300 μM tested
Procedure: as §1

[4] = system: hAChE; settings: cited from earlier work
[5] = system: MAO B; settings: Figure 1; cited from earlier work
[6] = metabolic stability, 2 h incubation with human liver microsomes, UPLC-MS; type: in vitro ADME
From the text: The metabolic stability of a compound is an important factor that determines its pharmacokinetics and its potential as a drug candidate. Drugs are being metabolized in a variety of tissues including lungs, kidneys, or intestinal walls, but the liver plays an essential role in this process.
Then, the UPLC/MS analyses were done by using a Waters ACQUITY TQD system with the TQ Detector (Waters, Milford, MA, USA). The in silico prediction of the most probable sites of metabolism was done by ADMET Predictor, ver. […]
7.4) at 37 °C in the presence of NADPH Regeneration System (Promega, Madison, WI, USA). […]

[7] = system: MAO A; settings: Figure 1; cited from earlier work
[8] = target: hS1R; settings: read-out: KihS1R; cited from earlier work
[9] = precipitation during incubation in MTS assay; type: physicochemical; settings: 72 h
Procedure: (A) Concentration–response on HEK-293 cells. (B) Concentration–response on HepG2 cells. Statistical significance was evaluated by one-way ANOVA, followed by Bonferroni’s comparison test (****p < 0.0001). DX, doxorubicin; CCCP, carbonyl cyanide 3-chlorophenyl […]. ASS234 precipitated at 100 μM during incubation.
(§2) Cytotoxicity and hepatotoxicity were estimated using the human embryonic kidney HEK-293 cell line (ATCC CRL-1573) and hepatoma HepG2 (ATCC HB-8065) cell line. The CellTiter 96 Aqueous Non-Radioactive Cell Proliferation Assay (MTS) was purchased from Promega (Madison, WI, USA) and performed according to the manufacturer’s protocol. […] The antiproliferative drug doxorubicin (DX) (1 μM) and mitochondrial toxin carbonyl cyanide 3-chlorophenyl-hydrazone (CCCP) (10 μM, only in hepatotoxicity assay) were used as positive controls (purchased from Sigma-Aldrich, St. Louis, MO, USA).

[10] = system: Huh7 cells; assay: crystal violet cell viability assay on Huh7; type: cell-based, human; settings: for concentration at which compound began to elicit toxicity: Huh7, crystal violet, 24 h, 1-300 μM tested; for toxicity compared with ASS234: Huh7, crystal violet (Figure 5C)
Procedure: as §1
(§3) To perform the crystal violet assay, wells were washed twice in PBS and cells were fixed with 100 μL of crystal violet (Sigma-Aldrich, Madrid, Spain) solution at 0.2% prepared in ethanol. Plates were incubated for 20 min at room temperature in a bench rocker. Next, wells were washed four times with distilled water, and then the plate was inverted gently to remove any remaining liquid. The plate was dried at room temperature for at least 2 h and attached cells were resuspended in SDS 1% for 30 min in a bench rocker. The optical density was measured in the spectrophotometer at 540 nm wavelength. Nontreated cells were considered controls and were taken as 100% viability.

[11] = system: WTIIB cells; assay: crystal violet cell viability assay on WTIIB; type: cell-based, mouse; settings: for concentration at which compound began to elicit toxicity: crystal violet, 24 h, 1-300 μM tested; for toxicity compared with ASS234: crystal violet (Figure 5D)
Procedure: as §1, §3

[12] = system: HepG2 cells; assay: MTS cell viability assay on HepG2; type: cell-based, human; settings: 72 h, tested at 1, 10, 50, 100 μM
Procedure: as §2

[13] = system: HEK-293 cells; assay: MTS cell viability assay on HEK-293; type: cell-based, human; settings: HEK-293, MTS, 72 h; tested at 1, 10, 50, 100 μM
Procedure: as §2

[14] = target: histamine H3 receptor (H3R); settings: cited from earlier work
[15] = system: SH-SY5Y human neuroblastoma cells; parameters: method as in PMID 28861918; settings: cited from earlier work

C#CCN(C)Cc1cc2cc(OCCCC3CCN(Cc4ccccc4)CC3)ccc2n1C [ASS234]
concentration at which compound began to elicit toxicity [1]: ≥ 30 µM
IC50 [2]: 1820 nM
concentration at which compound began to elicit toxicity [3]: ≥ 30 µM
IC50 [4]: 810 nM
IC50 [5]: 177 nM
parent compound detected after incubation with HLMs [6]: the compound was not detected
IC50 [7]: 5 nM
Ki [8]: 3 nM
concentration at which compound precipitated during incubation [9]: 100 µM
concentration at which compound began to elicit toxicity [10]: ≥ 30 µM
concentration at which compound began to elicit toxicity [11]: ≥ 30 µM

C#CCNCc1cc2cc(OCc3ccccc3)ccc2[nH]1 [PF9601N, N-(2-Propynyl)-2-(5-Benzyloxy-Indolyl) Methylamine]
IC50 [5]: 22 nM
parent compound detected after incubation with HLMs [6]: 95%
IC50 [7]: 1250 nM

C#CCN(C)Cc1cc2cc(OCCCN3CCCCC3)ccc2n1C [contilisant]
toxicity compared with ASS234 ([1]; 30 μM): less toxic than ASS234
toxicity compared with ASS234 ([1]; 300 μM): more toxic than ASS234
concentration at which compound began to elicit toxicity [1]: ≥ 30 µM
concentration range not affecting cell viability ([1]; Huh7, abstract, assay not specified (MTT / crystal violet)): up to 30 μM
IC50 [2]: 1690 nM
toxicity compared with ASS234 ([3]; 300 μM, MTT (Figure 5B)): more toxic than ASS234
concentration at which compound began to elicit toxicity [3]: 100 µM
concentration range not affecting cell viability [12]: up to 50 μM
concentration range not affecting cell viability [13]: up to 10 μM
Ki [14]: 11 nM
IC50 [5]: 78 nM
effective concentration used in neuroprotection experiments [15]: 0.3 to 3 µM
parent compound detected after incubation with HLMs [6]: 97%
Ki [8]: 65 nM
toxicity compared with ASS234 ([10]; 30 μM): less toxic than ASS234
toxicity compared with ASS234 ([10]; 300 μM): more toxic than ASS234
concentration at which compound began to elicit toxicity [10]: ≥ 30 µM
toxicity compared with ASS234 ([11]; 100 μM): less toxic than ASS234
toxicity compared with ASS234 ([11]; 300 μM): more toxic than ASS234
concentration at which compound began to elicit toxicity [11]: 100 µM

C#CCN(C)[C@H](C)Cc1ccccc1 [selegiline, reference compound]
fraction of compound metabolized by HLMs [6]: about 54%
